From paper PMC8208971, “Copper-binding anticancer peptides from the piscidin family: an expanded mechanism that encompasses physical and chemical bilayer disruption” (Scientific Reports, 2021)
Like-named read-outs stand apart in the source and are kept apart here. No end group written: not given here.

Experiments:
[1] = test system: HT1080 (fibrosarcoma) cancer cells; experiment: MTS cytotoxicity assay on HT1080 cells; assay type: cell-based
[2] = test system: A549 human lung cancer cells; experiment: MTT cytotoxicity assay on A549 cells; assay type: cell-based; details: for Factor by which metallation with Cu^2+ increases efficacy, A549: from average IC50 values, apo vs Cu^2+-bound
[3] = test system: HeLa (cervical) cancer cells; experiment: MTS cytotoxicity assay on HeLa cells; assay type: cell-based; details: 24 h treatment, triplicates, 95% CI in parentheses, for P3 first data point at 0.16 µmol/L not used, holo-forms 1:1 CuCl2
[4] = test system: normal MRC-5 (lung) fibroblast cells; experiment: Cytotoxicity assay on normal MRC-5 fibroblasts; assay type: cell-based; details: 95% confidence interval in parentheses; for apo-P1 given as 50% inhibition at
From the text: A549 human lung cancer cells were obtained from ATCC (ATCC CCL-185) and were maintained in Dulbecco’s Modified Eagle’s Medium (DMEM-F12, Lonza, catalog no. 12-719F) supplemented with 10% heat inactivated FBS and 1% Penn-Step. The HT1080 and MRC-5 cells were purchased from ATCC (catalog no. CCL-121 and CCL-171, respectively) and grown in Eagle’s Minimum Essential Medium (ATCC, catalog no. 30-2003TM) that was supplemented with FBS (ATCC, catalog no. 30-2021TM) such that the medium contained 10% FBS. The MDA-MB-231 and HeLa cells were obtained from ATCC (ATCC, catalog no. HTB-26 and CCL-2, respectively) and maintained in DMEM supplemented with 10% FBS. All cell cultures were grown at 37.5 °C in a humidified 5% CO2 atmosphere.
The cytotoxicity assays followed well established procedure, with the details given in the Supplementary Information. The assays were performed in triplicates using 96 well plates Cell viability was calculated using the equation: % viability = [(AT-AB)/(AC-AB)] × 100, where AT is the absorbance of the treatment well, AB is the average background absorbance measured from three wells containing only media, and AC is the absorbance of the […] control well, which received only 100 µL of media and 40 µL of MTT solution (i.e. no peptide). Averages and error bars were calculated as the mean + / − standard deviation based on triplicates. The IC50 values were obtained by fitting the percentage viability (% viability) vs Log (M) concentration of peptides to generate inhibitor dose response curve using the GraphPad Prism software. The curves were fitted using a least-squares minimization method. Individual data points on the graphs are provided as the mean (± standard deviation) from the triplicate % viability values. The GraphPad Prism algorithm converted the logIC50 into IC50 and used the standard error of the mean on the logIC50 to yield the 95% confidence interval for the logIC50 and IC50.
P1-Cu2+ and P3-Cu2+ were assayed on normal MRC-5 (lung) fibroblast cells (ATTC catalog no CCL-171), giving
given in parentheses. […]

[5] = test system: MDA-MB-231 (breast) cancer cells; assay type: cell-based; details: for IC50: 24 h
[6] = SPR/EIS on tethered bilayer membrane (membrane permeation); details: POPC tBLM, Tris 20 mmol/L, 50 mmol/L NaCl, pH 7.4; steps of 0.1 μmol/L, 10 min each
Procedure: Planar, tethered bilayer membranes (tBLM) supported on gold-coated surfaces (Fig. 2C) were made using 1-palmitoyl-2-oleoyl-sn-glycero-3-phosphocholine (POPC) to mimic cancer cell membranes[80],[81]. Combined, surface plasmon resonance (SPR)/electrical impedance spectroscopy (EIS) measurements (Fig. 3) were conducted by injecting the peptide in small increments while simultaneously observing (1) the kinetics associated with the peptides binding to the bilayer (SPR) and (2) the formation of peptide-lined defects that increase membrane permeation and conductance (EIS). […]
SPR/EIS measurements were carried out on tethered bilayer membrane (tBLM) using a custom-built instrument previously described (Fig. 2B)[123],[124]. […] Several POPC tBLMs were assembled on the gold surfaces using thiolated polyethyleneglycol linker molecules (1,2-di-O-myristyl-3-[ω-mercaptohexa(ethylene oxide) glycerol] (WC14) and β-mercaptoethanol (βME) at a ratio of 70:30 βME:WC14. The tBLMs were equilibrated in Tris buffer (20 mmol/L, 50 mmol/L NaCl, pH 7.4) and allowed to rest until both SPR and EIS signals were stable, before peptide injection. Two types of measurements were done. In the first type (Fig. 3), the peptide concentration was increased gradually, in steps of 0.1 μmol/L, and the SPR/EIS was monitored for 10 min after each addition. […]

[7] = Lipid oxidation, absorbance at 234 nm; details: SUVs 0.20 mg/mL, P/L = 1:10 (26 µmol/L), 4 mmol/L phosphate pH 7.8, 24 h exposure to air, triplicates
From the text: It has long been known that certain divalent metal ions, especially iron and copper, promote lipid peroxidation (oxidative deterioration of polyunsaturated fatty acids), a mechanism that has been strongly associated with cellular injury and death. Divalent transition-metal ions participate in Fenton-like chemical reactions produces ROS (e.g., hydroxyl radicals, superoxide) that can oxidize double bonds within the membrane. Here, to learn about the possible piscidin/Cu^2+-mediated oxidation of double bonds in lipid bilayers, we used absorbance and mass spectrometry to measure the formation of the oxidation products in small unilamellar vesicles (SUV) constituted of di-linoleoyl-sn-glycero-3-phosphocholine (DLPC) and POPG mixed in a 3:1 molar ratio and prepared at a concentration of 0.50 mg total lipid/mL. We first tested the ability of free Cu^2+ to oxidize the double bonds within the liposomes. Increasing amounts of Cu^2+ for a fixed amount of lipids (expressed as Cu/L, the molar ratio of Cu^2+ to total lipid) were mixed with the SUVs and the absorbance was measured at λ = 234 nm (Fig. 7A) (corresponding to λmax for the conjugated dienes that appear in lipid oxidation products)[92],[93]. Because molecular oxygen (O2) found in the atmosphere readily dissolves in the bilayer, no exogenous oxidant is needed to initiate the oxidation of the double bonds. […]

[8] = test system: normal MRC-5 (lung) fibroblast cells; parameters: dose or concentration left out as unconfirmed; details: at about; ref Lin et al.1; cited from earlier work
From the text: (§1) Tested at up to 10 µ mol/L ...

[9] = test system: HGF-1 (gingival) fibroblast cells; details: tested at up; no significant inhibitory effects; ref Cheng et al.2; cited from earlier work
From the text: as §1

[10] = test system: OMF (mucosal) fibroblast cells; details: tested at up to 10 mol/L; no significant inhibitory effects; ref Cheng et al.2; cited from earlier work
From the text: as §1

| IC50 [5] [µM] | Compound | IC50 [4] [µM] | IC50 ([1]; 24 h) [µM] | IC50 ([2]; 24 h) [µM] | Factor by which metallation with Cu^2+ increases efficacy, A549 [2] | Peptide concentration inducing drop in bilayer resistance (EIS) [6] [µmol/L] | Lipid oxidation (absorbance peak at 234 nm) [7] | also measured |
| --- | --- | --- | --- | --- | --- | --- | --- | --- |
| – | FFHHIFRGIVHVGKTIHRLVTG-NH2 [P1-Cu^2+] | 5.97 | – | – | – | – | – | IC50 ([1]; MTS, 24 h treatment, triplicates, 95% confidence interval in parentheses, holo-forms metallated 1:1 with CuCl2, read-out: IC50, HT1080): 5.31 µM; IC50 ([2]; MTT, 24 h treatment, triplicates, 95% CI in parentheses, holo-forms 1:1 CuCl2, read-out: IC50, A549): 2.15 µM; IC50 [3]: 2.17 µM |
| 17.5 | FIHHIFRGIVHAGRSIGRFLTG-NH2 [P3, piscidin 3] | – | 26 | 21.6 | ≈ 7 fold | 0.5 | little lipid oxidation | Factor by which metallation with Cu^2+ increases efficacy, HT1080 ([1]; from average IC50 values, apo vs Cu^2+-bound): ≈ 5 fold |
| 5.25 | FIHHIFRGIVHAGRSIGRFLTG-NH2 [P3-Cu^2+] | 8.62 | 5.52 | 2.99 | – | – | – | – |
| – | FFHHIFRGIVHVGKTIHRLVTG-NH2 [P1, piscidin 1] | 8.56 | – | – | ≈ 2 fold | 0.2 | little lipid oxidation | Factor by which metallation with Cu^2+ increases efficacy, MDA-MB-231 ([5]; from average IC50 values, apo vs Cu^2+-bound, given as 'up to'): ≈ 2 fold; Inhibition of MRC-5 cells [8]: ~ 45%; Survival, HGF-1 [9]: > 90%; Survival, OMF [10]: > 90% |
| – | [Cl][Cu][Cl] [Free Cu^2+, CuCl2, reference compound] | – | – | – | – | – | – | Cytotoxicity of free Cu^2+ ([1]; CuCl2 tested at up to 30 µmol/L, HT1080 cells, same conditions as the peptides (Fig. S1B)): not cytotoxic |
